Source: ChEMBL document CHEMBL4819006, “1,4,6-Trisubstituted imidazo[4,5-c]pyridines as inhibitors of Bruton's tyrosine kinase” (Eur J Med Chem, 2021)
Calls of active or inactive are those of the source. No cut-off for these calls is given here.

Legend:
Rec1 = experiment: Growth inhibition of human REC1 cells assessed as inhibition of cell growth measured after 72 hrs by resazurin dye based assay; assay type: functional; details: Homo sapiens, Rec1
[1] = target: Cyclin-dependent kinase 2 (Homo sapiens) (UniProt P24941); experiment: Inhibition of GST-tagged CDK2/cyclinE (unknown origin) expressed in Sf9 cells assessed as residual activity using histone H1 as substrate in presence of ATP and Ci(gamma33-P) ATP at 1 uM measured by microplate reader assay
[2] = target: T1, Tyrosine-protein kinase BTK (Homo sapiens, UniProt Q06187); experiment: Inhibition of human BTK using poly (Glu,Tyr) as substrate in presence of ATP and Ci(gamma33-P) ATP measured by microplate reader assay
[3] = target: Tyrosine-protein kinase Fyn (Homo sapiens) (UniProt P06241); experiment: Inhibition of human recombinant full length GST-tagged FYN (M1 to L537 residues) assessed as residual activity using poly (Glu,Tyr) as substrate in presence of ATP and Ci(gamma33-P) ATP at 1 uM measured by microplate reader assay
[4] = target: T1, Tyrosine-protein kinase BTK; experiment: Inhibition of human BTK assessed as residual activity using poly (Glu,Tyr) as substrate in presence of ATP and Ci(gamma33-P) ATP at 1 uM measured by microplate reader assay
K562 = experiment: Growth inhibition of human K562 cells assessed as inhibition of cell growth measured after 72 hrs by resazurin dye based assay; assay type: functional; details: Homo sapiens, K562
[5] = target: Receptor-type tyrosine-protein kinase FLT3 (Homo sapiens) (UniProt P36888); experiment: Inhibition of human recombinant […] N-terminal GST-tagged FLT3 (R571 to S993 residues) assessed as residual activity using poly (Ala, Glu, Lys, Tyr) hydrobromide as substrate in presence of ATP and Ci(gamma33-P) ATP at 1 uM measured by microplate reader assay
Ramos = experiment: Growth inhibition of human Ramos cells assessed as inhibition of cell growth measured after 72 hrs by resazurin dye based assay; assay type: functional; details: Homo sapiens, Ramos
[6] = Growth inhibition of human patient derived UPF7U cells assessed as inhibition of cell growth measured after 72 hrs by resazurin dye based assay; assay type: functional; details: Homo sapiens, UPF7U
[7] = Growth inhibition of human patient derived UPF1H cells assessed as inhibition of cell growth measured after 72 hrs by resazurin dye based assay; assay type: functional; details: Homo sapiens, UPF1H
[8] = target: Tyrosine-protein kinase SYK (Homo sapiens) (UniProt P43405); experiment: Inhibition of human recombinant GST-tagged SYK (M1 to N635 residues) assessed as residual activity using poly (Glu,Tyr) as substrate in presence of ATP and Ci(gamma33-P) ATP at 1 uM measured by microplate reader assay
[9] = target: Tyrosine-protein kinase ABL1 (Homo sapiens) (UniProt P00519); experiment: Inhibition of Abl (unknown origin) expressed in Sf9 cells assessed as residual activity using GGEAIYAAPFKK peptide as substrate in presence of ATP and Ci(gamma33-P)ATP at 1 uM measured by microplate reader
[10] = target: T1, Tyrosine-protein kinase BTK; experiment: Inhibition of BTK in human Ramos cells assessed as reduction of IgM stimulated BTK ([…]) phosphorylation at 1 to 5 uM measured after 24 hrs by western blot assay; assay type: cell-based; details: dose 1-5 µM
[11] = target: T1, Tyrosine-protein kinase BTK; experiment: Inhibition of BTK in human Ramos cells assessed as reduction of IgM stimulated PLCgamma2 (Y1217) phosphorylation at 1 to 5 uM measured after 24 hrs by western blot assay; assay type: cell-based; details: dose 1-5 µM
[12] = target: Mitogen-activated protein kinase; ERK1/ERK2 (Homo sapiens) (UniProt P27361+P28482); experiment: Inhibition of ERK1/2 in human Ramos cells assessed as reduction in ERK1/2 phosphorylation at 1 to 5 uM measured after 24 hrs by western blot assay; assay type: cell-based; details: dose 1-5 µM
[13] = target: T1, Tyrosine-protein kinase BTK; experiment: Inhibition of BTK in human Ramos cells assessed as reduction of IgM stimulated PLCgamma1 (Y783) phosphorylation at 0.125 to 1 uM measured after 24 hrs by western blot assay relative to Ibrutinib; assay type: cell-based; details: dose 0.125-1 µM
[14] = target: T1, Tyrosine-protein kinase BTK; experiment: Inhibition of BTK in human Ramos cells assessed as reduction of IgM stimulated BTK phosphorylation measured after 24 hrs by western blot assay; assay type: cell-based; details: dose 0.125-1 µM
[15] = target: T1, Tyrosine-protein kinase BTK; experiment: Inhibition of BTK in human UPF7U cells assessed as reduction of IgM stimulated PLCgamma1 (Y783) phosphorylation at 0.125 to 1 uM measured after 24 hrs by western blot assay relative to Ibrutinib; assay type: cell-based; details: dose 0.125-1 µM
[16] = target: Tyrosine-protein kinase Lck (Homo sapiens) (UniProt P06239); experiment: Inhibition of recombinant LCK (unknown origin) assessed as residual activity at 1 uM
[17] = target: Proto-oncogene tyrosine-protein kinase Src (Homo sapiens) (UniProt P12931); experiment: Inhibition of recombinant SRC (unknown origin) assessed as residual activity at 1 uM
[18] = target: T1, Tyrosine-protein kinase BTK; experiment: Inhibition of BTK in human UPF7U cells assessed as reduction of IgM stimulated PLCgamma2 (Y1217) phosphorylation at 0.125 to 1 uM measured after 24 hrs by western blot assay relative to Ibrutinib; assay type: cell-based; details: dose 0.125-1 µM
[19] = target: T1, Tyrosine-protein kinase BTK; experiment: Inhibition of BTK in human UPF7U cells assessed as reduction of IgM stimulated BTK phosphorylation measured after 24 hrs by western blot assay; assay type: cell-based; details: dose 0.125-1 µM
[20] = target: T1, Tyrosine-protein kinase BTK; experiment: Inhibition of BTK in human Ramos cells assessed as reduction of IgM stimulated PLCgamma2 (Y1217) phosphorylation at 0.125 to 1 uM measured after 24 hrs by western blot assay relative to Ibrutinib; assay type: cell-based; details: dose 0.125-1 µM

Chain of Receptor-type tyrosine-protein kinase FLT3 (Homo sapiens) (P36888 whole entry, the tested form may be a part): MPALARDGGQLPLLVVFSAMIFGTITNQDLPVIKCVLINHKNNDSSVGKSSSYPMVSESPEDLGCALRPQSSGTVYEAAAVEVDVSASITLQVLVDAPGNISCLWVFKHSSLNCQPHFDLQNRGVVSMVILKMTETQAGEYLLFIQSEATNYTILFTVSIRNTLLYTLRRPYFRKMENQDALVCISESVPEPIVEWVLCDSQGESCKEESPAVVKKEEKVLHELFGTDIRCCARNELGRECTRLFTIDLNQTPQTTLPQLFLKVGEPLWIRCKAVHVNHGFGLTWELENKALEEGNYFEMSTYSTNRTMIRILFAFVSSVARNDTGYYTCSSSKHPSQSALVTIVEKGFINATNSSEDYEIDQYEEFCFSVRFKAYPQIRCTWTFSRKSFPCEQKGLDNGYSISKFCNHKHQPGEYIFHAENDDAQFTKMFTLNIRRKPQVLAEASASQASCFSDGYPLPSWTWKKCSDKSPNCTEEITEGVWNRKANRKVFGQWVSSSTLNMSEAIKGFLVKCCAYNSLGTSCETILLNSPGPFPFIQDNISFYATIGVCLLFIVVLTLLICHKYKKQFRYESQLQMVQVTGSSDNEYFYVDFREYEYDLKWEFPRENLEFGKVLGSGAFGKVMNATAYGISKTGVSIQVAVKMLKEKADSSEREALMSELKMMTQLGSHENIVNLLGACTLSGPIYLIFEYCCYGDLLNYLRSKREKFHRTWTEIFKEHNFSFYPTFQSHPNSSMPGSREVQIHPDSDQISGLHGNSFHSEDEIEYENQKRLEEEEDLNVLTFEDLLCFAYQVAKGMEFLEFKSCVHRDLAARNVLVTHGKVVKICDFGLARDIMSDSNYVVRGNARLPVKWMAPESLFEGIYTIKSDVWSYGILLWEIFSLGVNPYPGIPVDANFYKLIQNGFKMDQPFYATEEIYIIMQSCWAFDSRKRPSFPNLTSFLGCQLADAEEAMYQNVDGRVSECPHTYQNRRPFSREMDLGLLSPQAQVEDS
Chain of Mitogen-activated protein kinase; ERK1/ERK2 (Homo sapiens) (P27361 whole entry, looked up): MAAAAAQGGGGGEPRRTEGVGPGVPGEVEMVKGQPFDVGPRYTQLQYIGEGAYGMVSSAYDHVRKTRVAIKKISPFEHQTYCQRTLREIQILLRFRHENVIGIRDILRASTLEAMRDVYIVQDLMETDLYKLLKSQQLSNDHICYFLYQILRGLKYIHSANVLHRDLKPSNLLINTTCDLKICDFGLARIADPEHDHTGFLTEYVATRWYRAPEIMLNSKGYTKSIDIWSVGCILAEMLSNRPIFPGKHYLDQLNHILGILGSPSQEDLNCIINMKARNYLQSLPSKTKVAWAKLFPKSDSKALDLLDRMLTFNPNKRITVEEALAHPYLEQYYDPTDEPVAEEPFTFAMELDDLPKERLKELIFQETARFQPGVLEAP
Chain of Mitogen-activated protein kinase; ERK1/ERK2 (Homo sapiens) (P28482 whole entry, looked up): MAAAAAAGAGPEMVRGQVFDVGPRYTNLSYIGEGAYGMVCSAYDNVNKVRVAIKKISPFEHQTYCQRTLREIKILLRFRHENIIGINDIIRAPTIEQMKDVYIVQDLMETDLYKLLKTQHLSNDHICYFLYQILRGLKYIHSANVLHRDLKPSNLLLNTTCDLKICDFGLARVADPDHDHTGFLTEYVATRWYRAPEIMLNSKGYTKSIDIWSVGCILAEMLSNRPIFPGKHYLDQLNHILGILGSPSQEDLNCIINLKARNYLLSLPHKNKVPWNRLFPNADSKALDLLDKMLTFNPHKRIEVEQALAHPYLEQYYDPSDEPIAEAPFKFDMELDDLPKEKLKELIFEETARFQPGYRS
Chain of Tyrosine-protein kinase Fyn (Homo sapiens) (P06241 2-537 limits assumed): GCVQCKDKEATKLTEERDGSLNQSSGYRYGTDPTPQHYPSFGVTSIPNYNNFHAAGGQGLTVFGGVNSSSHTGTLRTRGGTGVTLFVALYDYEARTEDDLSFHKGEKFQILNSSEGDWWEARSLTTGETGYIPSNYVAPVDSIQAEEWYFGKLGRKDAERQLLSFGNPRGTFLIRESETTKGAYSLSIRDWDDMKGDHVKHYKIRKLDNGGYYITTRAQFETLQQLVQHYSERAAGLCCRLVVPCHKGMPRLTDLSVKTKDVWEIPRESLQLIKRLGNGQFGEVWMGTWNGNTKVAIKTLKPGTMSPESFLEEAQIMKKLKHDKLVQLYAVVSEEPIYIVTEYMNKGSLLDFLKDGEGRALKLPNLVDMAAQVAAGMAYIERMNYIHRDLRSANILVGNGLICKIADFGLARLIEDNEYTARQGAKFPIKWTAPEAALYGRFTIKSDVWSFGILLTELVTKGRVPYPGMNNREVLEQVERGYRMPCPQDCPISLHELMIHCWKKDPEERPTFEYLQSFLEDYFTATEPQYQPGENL
T1 sequence (Q06187 whole entry, the tested form may be a part): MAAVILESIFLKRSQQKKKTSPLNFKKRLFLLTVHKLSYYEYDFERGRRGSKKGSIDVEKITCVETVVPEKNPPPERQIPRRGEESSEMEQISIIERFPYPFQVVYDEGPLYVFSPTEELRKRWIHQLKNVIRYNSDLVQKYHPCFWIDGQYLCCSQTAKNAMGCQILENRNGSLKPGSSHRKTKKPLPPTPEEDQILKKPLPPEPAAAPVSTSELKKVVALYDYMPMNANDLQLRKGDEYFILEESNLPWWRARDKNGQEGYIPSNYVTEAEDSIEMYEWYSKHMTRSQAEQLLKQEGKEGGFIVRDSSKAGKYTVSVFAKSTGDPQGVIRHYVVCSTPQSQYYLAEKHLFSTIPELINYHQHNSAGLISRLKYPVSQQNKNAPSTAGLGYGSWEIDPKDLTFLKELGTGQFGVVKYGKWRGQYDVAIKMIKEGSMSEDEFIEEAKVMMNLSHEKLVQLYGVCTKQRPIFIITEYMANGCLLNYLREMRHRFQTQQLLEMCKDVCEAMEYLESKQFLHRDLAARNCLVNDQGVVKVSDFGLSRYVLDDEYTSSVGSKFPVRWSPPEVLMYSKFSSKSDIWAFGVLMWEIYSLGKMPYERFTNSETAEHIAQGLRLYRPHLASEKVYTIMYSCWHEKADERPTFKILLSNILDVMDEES
Chain of Tyrosine-protein kinase ABL1 (Homo sapiens) (P00519 whole entry): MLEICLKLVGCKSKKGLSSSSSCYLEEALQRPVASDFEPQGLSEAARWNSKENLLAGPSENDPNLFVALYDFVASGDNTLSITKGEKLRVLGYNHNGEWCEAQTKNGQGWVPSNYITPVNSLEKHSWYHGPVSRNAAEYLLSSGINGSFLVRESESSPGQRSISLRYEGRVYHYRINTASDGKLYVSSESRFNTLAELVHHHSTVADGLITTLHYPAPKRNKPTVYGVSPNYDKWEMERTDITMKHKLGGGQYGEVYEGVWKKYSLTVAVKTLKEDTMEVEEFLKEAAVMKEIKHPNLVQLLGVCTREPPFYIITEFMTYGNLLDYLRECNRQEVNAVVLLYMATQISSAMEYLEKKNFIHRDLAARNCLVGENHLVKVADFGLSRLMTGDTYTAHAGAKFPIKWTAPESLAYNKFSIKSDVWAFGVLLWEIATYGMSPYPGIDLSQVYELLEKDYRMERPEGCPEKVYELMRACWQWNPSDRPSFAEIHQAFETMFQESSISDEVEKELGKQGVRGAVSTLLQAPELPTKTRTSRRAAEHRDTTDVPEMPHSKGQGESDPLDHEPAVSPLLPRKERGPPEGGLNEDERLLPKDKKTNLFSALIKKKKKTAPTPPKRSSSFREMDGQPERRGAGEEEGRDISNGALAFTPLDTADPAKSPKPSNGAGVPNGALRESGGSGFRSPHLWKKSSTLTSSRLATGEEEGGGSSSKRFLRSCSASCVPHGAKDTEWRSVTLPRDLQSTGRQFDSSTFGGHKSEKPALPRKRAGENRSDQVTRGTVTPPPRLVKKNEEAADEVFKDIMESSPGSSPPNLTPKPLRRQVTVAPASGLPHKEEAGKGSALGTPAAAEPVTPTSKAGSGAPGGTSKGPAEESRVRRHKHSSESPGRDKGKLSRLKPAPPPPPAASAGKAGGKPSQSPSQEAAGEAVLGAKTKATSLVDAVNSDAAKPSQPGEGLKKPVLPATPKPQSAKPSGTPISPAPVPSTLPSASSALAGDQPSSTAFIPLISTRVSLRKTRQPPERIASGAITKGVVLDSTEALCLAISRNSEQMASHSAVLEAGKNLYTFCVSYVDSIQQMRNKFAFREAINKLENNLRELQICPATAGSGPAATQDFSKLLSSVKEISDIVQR
Chain of Tyrosine-protein kinase Lck (Homo sapiens) (P06239 2-509 limits assumed): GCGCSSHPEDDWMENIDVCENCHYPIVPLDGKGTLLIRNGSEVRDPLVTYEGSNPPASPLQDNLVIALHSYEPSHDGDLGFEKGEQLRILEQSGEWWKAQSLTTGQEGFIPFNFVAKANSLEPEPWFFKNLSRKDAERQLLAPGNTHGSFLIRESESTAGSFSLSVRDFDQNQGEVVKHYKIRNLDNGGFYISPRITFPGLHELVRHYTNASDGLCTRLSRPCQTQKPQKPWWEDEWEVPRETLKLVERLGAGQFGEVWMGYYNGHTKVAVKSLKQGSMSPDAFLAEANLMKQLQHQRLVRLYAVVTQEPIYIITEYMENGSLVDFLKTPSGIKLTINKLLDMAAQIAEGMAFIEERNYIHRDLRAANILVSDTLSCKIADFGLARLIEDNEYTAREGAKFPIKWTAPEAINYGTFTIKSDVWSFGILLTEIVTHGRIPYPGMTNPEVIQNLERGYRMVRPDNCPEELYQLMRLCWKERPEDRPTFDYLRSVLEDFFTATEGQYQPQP

Structure (SMILES) | GI50 (Rec1) [µM] | Activity [1] [%] | IC50 [2] [µM] | Activity [3] [%] | Activity [4] [%] | GI50 (K562) [µM] | Activity [5] [%] | GI50 (Ramos) [µM] | GI50 [6] [µM] | GI50 [7] [µM] | Activity [8] [%] | Activity [9] [%] | inhibition [12] | other results
Cc1c(NC(=O)c2cccc(C(C)(C)C)c2)cccc1-c1cc2[nH]cnc2c(Nc2ccc(C(=O)N3CCOCC3)cc2)n1 | 64 | 95.3 | 0.709 | 81 | 43.3 | 60.1 | 64.9 | 18.6 | > 50 | 40.3 | 74.1 | > 100 | – | –
Cc1c(NC(=O)C2CCCCC2)cccc1-c1cc2[nH]cnc2c(Nc2ccc(C(=O)N3CCOCC3)cc2)n1 | > 50 | 93 | 0.932 | 95.1 | 61.5 | 49 | 75.7 | 47.2 | > 50 | 44.1 | 43.3 | – | inactive | inhibition [10]: Active; inhibition [11]: Active
Cc1cccc(-c2cc3[nH]cnc3c(Nc3ccc(C(=O)N4CCOCC4)cc3)n2)c1C | 42 | – | – | – | – | > 50 | – | 45.8 | > 50 | > 50 | – | – | inactive | –
Cc1c(NC(=O)c2ccc(C(C)(C)C)cc2)cccc1-c1cc2[nH]cnc2c(Nc2ccc(C(=O)N3CCOCC3)cc2)n1 | 24 | 92.1 | 0.025 | 80.6 | 18.4 | 32.7 | 51.9 | 16.5 | 20.6 | 12.2 | 80.3 | > 100 | inactive | inhibition [10]: Active; inhibition [11]: Active
Cc1c(NC(=O)c2ccc(C(C)(C)C)cc2)cccc1-c1cc2c(ncn2C)c(Nc2ccc(C(=O)N3CCOCC3)cc2)n1 | 17.7 | 95.6 | 0.527 | 68.8 | 39.7 | 57.3 | > 100 | 12.2 | 35.6 | 25.6 | 74.3 | > 100 | – | –
Cc1c(NC(=O)c2ncc[nH]2)cccc1-c1cc2[nH]cnc2c(Nc2ccc(C(=O)N3CCOCC3)cc2)n1 | > 25 | 93.6 | 0.041 | 56.3 | 24.2 | > 25 | 33.3 | > 25 | > 25 | > 12.5 | 66 | 39.4 | – | –
Cc1c(NC(=O)c2ccccc2)cccc1-c1cc2[nH]cnc2c(Nc2ccc(C(=O)N3CCOCC3)cc2)n1 | > 16.6 | 85.2 | 0.155 | 65.3 | 20.1 | > 16.6 | 47 | > 16.6 | > 50 | > 50 | 71.3 | 68.2 | – | –
CC(C)(C)c1ccc(C(=O)Nc2cccc(-c3cc4[nH]cnc4c(Nc4ccc(C(=O)N5CCOCC5)cc4)n3)c2)cc1 | 6 | 98.7 | 0.027 | 86.4 | 14.7 | 2.3 | > 100 | 1.2 | 5.5 | 1 | 71.4 | 95.9 | – | inhibition [13]: Active; inhibition [14]: Dose-Dependent Effect; inhibition [15]: Active; inhibition [16]: Active; inhibition [17]: Active; inhibition [18]: Active; inhibition [19]: Dose-Dependent Effect; inhibition [20]: Active
